Experimental findings from ChEMBL document CHEMBL1132754, “Photosensitizers related to purpurin-18-N-alkylimides: a comparative in vivo tumoricidal ability of ester versus amide functionalities” (Bioorg Med Chem Lett, 2000) are described below.

A short description of series [1]: Partition coefficient (logP). Format: physicochemical. The note with it: octanol/water.
Series [2] relates to Mus musculus. Put plainly: Tumor versus muscle uptake ratio in mice (implanted with RIFtumor)by in vivo reflectance spectroscopy at 5 min, 24 hr and 48 hr post injection (5.0 umol/kg). Format: functional, Muscle tissue.
Series [3] concerns Mus musculus. Put plainly: Percent tumor response in mice (implanted with RIF tumor) on day 7 at 24 hours post injection (1.0 umol/kg). It is filed as functional.
For series [4], the system named is Mus musculus. Put plainly: The in vivo tumor uptake was determined by reflectance spectroscopy in mouse. Format: functional.
The test system of series [5] is Mus musculus. Put plainly: Percent tumor response in mice (implanted with RIF tumor) on day 30 after administering the compound (1.0 umol/kg). Format: functional.
Series [6] deals with Mus musculus. Put plainly: Photodynamic therapy response in mice (implanted with RIF tumor) on day 10 after administering the compound (0.4 umol/kg); Complete response. It is filed as functional, organism-based.
In series [7] the test system is Mus musculus. Put plainly: Photodynamic therapy response in mice (implanted with RIF tumor) on day 15 after administering the compound (0.4 umol/kg). It is filed as functional.
Series [8] concerns Mus musculus. Put plainly: Photodynamic therapy response in mice (implanted with RIF tumor) on day 20 after administering the compound (0.4 umol/kg). Format: functional.
The subject of series [9] is Mus musculus. Put plainly: Photodynamic therapy response in mice (implanted with RIF tumor) on day 25 after administering the compound (0.4 umol/kg);Tumor regrowth. Format: functional, organism-based.
Series [10] relates to Mus musculus. Put plainly: Photodynamic therapy response in mice (implanted with RIF tumor)after administering the compound (0.4 umol/kg); Decreased. It is filed as functional, organism-based.

Take `CCCCCCCCOC(C)C1=C(C)c2cc3nc(c4c5[nH]c(cc6[nH]c(cc1n2)c(C)c6CC)c(C)c5C(=O)N(CCCCCC)C4=O)[C@@H](CCC(=O)OC)[C@@H]3C` (stereo partly specified): the logP (in general, the decadic logarithm of the partition coefficient of the neutral form, usually between octanol and water) in series [1] worked out at 11.3. Besides, the Ratio in series [2] turned out to be 2.9. Besides, in series [3], the Tumor response was determined as 10%. This molecule also yielded a Tumor uptake in series [4] of 15.7 µM/kg.
In [1], `CCCCCCNC(=O)CC[C@@H]1c2nc(cc3[nH]c(cc4[nH]c(cc5nc6c2C(=O)N(CCCCCC)C(=O)C6=C5C)c(CC)c4C)c(C(C)OCCC)c3C)[C@H]1C` (stereo partly specified) displayed a lipophilicity (logP) of 10.3. Moreover, the Ratio in series [2] turned out to be 2.69. This molecule had a Tumor response in [3] of 67%. In addition, the Tumor uptake in series [4] was 7 µM/kg.
The corresponding values for `CCCCCCNC(=O)CC[C@@H]1c2nc(cc3[nH]c(cc4[nH]c(cc5nc6c2C(=O)N(CCCCCC)C(=O)C6=C5C)c(CC)c4C)c(C(C)OCCCCC)c3C)[C@H]1C` (stereo partly specified) are 11.3, 3.32, 20% and 7.33 µM/kg.
For the molecule `CCCCCCCOC(C)C1=C(C)c2cc3nc(c4c5[nH]c(cc6[nH]c(cc1n2)c(C)c6CC)c(C)c5C(=O)N(CCCCCC)C4=O)[C@@H](CCC(=O)NCCCCCC)[C@@H]3C` (stereo partly specified), the Ratio in [2] worked out at 3.59. The molecule also displayed a Tumor response in [3] of 50%. This molecule showed a Tumor uptake in [4] of 6.58 µM/kg.
In the same order, the values of `CCCCCCCCCCOC(C)C1=C(C)c2cc3nc(c4c5[nH]c(cc6[nH]c(cc1n2)c(C)c6CC)c(C)c5C(=O)N(CCCCCC)C4=O)[C@@H](CCC(=O)OC)[C@@H]3C` (stereo partly specified) are 3.23, 100% and 4.2 µM/kg.
On to `CCCCCCOC(C)C1=C(C)c2cc3nc(c4c5[nH]c(cc6[nH]c(cc1n2)c(C)c6CC)c(C)c5C(=O)N(CCCCCC)C4=O)[C@@H](CCC(=O)OC)[C@@H]3C` (stereo partly specified), for which the lipophilicity (logP) in [1] is given as 10.3. In addition, the Response in [5] was 100%; in [6] it was “Complete response”; in [7], 80%; in [8], 60%; in series [9] it was “Complete response”; in series [10] it was “Complete response”. Also, in [2], the Ratio is 8. This molecule also returned a Tumor response in series [3] of 100%. The Tumor uptake in series [4] is 7.27 µM/kg.
For `CCCCCCNC(=O)CC[C@@H]1c2nc(cc3[nH]c(cc4[nH]c(cc5nc6c2C(=O)N(CCCCCC)C(=O)C6=C5C)c(CC)c4C)c(C(C)OC)c3C)[C@H]1C` (stereo partly specified), the logP in series [1] was 9.3. For the same molecule, the Ratio in series [2] is recorded as 4.35. The Tumor response in series [3] is on record as 0%. In series [4], this molecule came in with a Tumor uptake of 6.4 µM/kg.
The molecule `CCCCCCN1C(=O)c2c3nc(cc4nc(cc5[nH]c(cc6[nH]c2c(c6C)C1=O)c(CC)c5C)C(C(C)OCCCC)=C4C)[C@@H](C)[C@@H]3CCC(=O)OC` (stereo partly specified) gave a logP in series [1] of 9.3. For the same molecule, the Ratio in series [2] came out at 2.22. In series [3], this molecule had a Tumor response of 100%. The molecule further yielded a Tumor uptake in series [4] of 12.9 µM/kg.
